Source: patent US12595231B2 (priority 2022, dated 2026)
Where two headings read alike, the source gives them in different places.

Tests used:
1-week stability study = format: physicochemical; conditions: for Observation: Sigma Aldrich colour chart
Procedure: A 1-week stability study was performed for hydrochloride salt Pattern 1, besylate salt Pattern 1, fumarate salt Pattern 1+4, and fumarate salt Pattern 4.
Approximately 5 mg of the salt was weighed into 3×2 mL push cap vials. The 2 mL vials were then each placed inside a 20 mL vial, with the lids on or off as required. The solids were placed under the required stability conditions for 1 week at the following three conditions: 40° C./75% RH (open); 80° C. (closed); Ambient light, temperature and humidity (open)
After 1-week, visual observations were noted, then the solids were analysed by XRPD and HPLC.

[1] = DVS analysis (water uptake); format: physicochemical; conditions: for hygroscopicity: from DVS water uptake at 80% RH
[2] = primary salt formation assessment: solution degradation (HPLC of mother liquor); format: physicochemical; conditions: salt formation experiment
Procedure: HPLC analysis was carried out to determine the chemical purity of the mesembrine and to provide information on any impurities. The following conditions were use: • Column: Waters Acquity BEH 018 1.7 μm 150 mm×2.1 mm • Column Temperature: 33° C. • Autosampler Temperature: 25° C. • UV Wavelength: 280 nm • Injection Volume: 5 μL • Flow Rate: 0.29 mL/min • Mobile Phase A: 0.1% NH4 in H2O • Mobile Phase B: Methanol:Water 20:80% v/v • Gradient Program: […]
The experiments were then temperature cycled between the upper temperature limit (specified in Table 3.1) and 5° C. at 0.1° C./min, with 1 h holds at the upper temperature limit, and 5° C. for ca. 72 h.
After temperature cycling, solids were isolated from experiments at 5° C., and analysed by XRPD.

[3] = format: physicochemical; conditions: for HPLC Conc.: 25° C., 24 h, with respect to mesembrine; for HPLC Purity: solution/mother liquor
Procedure: Approximately 20 mg of each salt was weighed into 3×2 mL push cap vials. 0.1 mL of buffer (Chloride pH 1.2; Acetate pH 4.5; Phosphate pH 6.8) was added to each vial, at 25° C. The experiment was stirred for ca. 24 h. After 2 h, the pH was measured and adjusted if required. After 24 h a final pH measurement was taken. Any slurries were centrifuged and the solids analysed by XRPD.

[4] = salt hydration study in methanol/water of known water activity; format: physicochemical; conditions: 25° C.; for Observation: 24 h; for Solubility: methanol/water, all levels of water activity (aw 0.2, 0.5, 0.8)
Procedure: Approximately 20 mg of the hydrochloride (HCl), besylate and fumarate salts were weighed into 3×2 mL push cap vials. 0.05-0.1 mL of relevant solvent system was added to each vial, at 25° C.
Methanol/water solvent systems (99:1, 75:25, 33:67) of known water activity (aw 0.2, 0.5 and 0.8 respectively) were used. The experiment was stirred for ca. 24 h. After 24 h, any slurries were centrifuged, and the solids analysed by XRPD.
An additional hydration study was required in order to repeat the salt hydration studies, for the HCl salt and the besylate salt due to dissolution in the first set of experiments:
For each salt, approximately 10 mg was weighed into 4×2 mL vials and a stirrer bar added. 10 μL of each solvent system was added, at 25° C. The experiments were stirred for 24 h, and any solids recovered were then analysed by XRPD.

[5] = primary salt formation assessment: storage at 40° C./75% RH for ca. 24 h, XRPD; format: physicochemical; conditions: solids stored at 40° C./75% RH for ca. 24 h
Procedure: Solids were dried at 40° C. under vacuum for ca. 24 h, and then re-analysed by XRPD.
Solids were then stored at 40° C./75% RH for ca. 24 h, and then re-analysed by XRPD.

[6] = VH-XRPD analysis (variable humidity); format: physicochemical
[7] = HCl salt, background statement; cited from earlier work
5-HT transporter = 5-HT transporter (Homo sapiens, UniProt P31645); conditions: Harvey et al., 2011; cited from earlier work
5-HT transporter, sequence (P31645 whole entry, species assumed): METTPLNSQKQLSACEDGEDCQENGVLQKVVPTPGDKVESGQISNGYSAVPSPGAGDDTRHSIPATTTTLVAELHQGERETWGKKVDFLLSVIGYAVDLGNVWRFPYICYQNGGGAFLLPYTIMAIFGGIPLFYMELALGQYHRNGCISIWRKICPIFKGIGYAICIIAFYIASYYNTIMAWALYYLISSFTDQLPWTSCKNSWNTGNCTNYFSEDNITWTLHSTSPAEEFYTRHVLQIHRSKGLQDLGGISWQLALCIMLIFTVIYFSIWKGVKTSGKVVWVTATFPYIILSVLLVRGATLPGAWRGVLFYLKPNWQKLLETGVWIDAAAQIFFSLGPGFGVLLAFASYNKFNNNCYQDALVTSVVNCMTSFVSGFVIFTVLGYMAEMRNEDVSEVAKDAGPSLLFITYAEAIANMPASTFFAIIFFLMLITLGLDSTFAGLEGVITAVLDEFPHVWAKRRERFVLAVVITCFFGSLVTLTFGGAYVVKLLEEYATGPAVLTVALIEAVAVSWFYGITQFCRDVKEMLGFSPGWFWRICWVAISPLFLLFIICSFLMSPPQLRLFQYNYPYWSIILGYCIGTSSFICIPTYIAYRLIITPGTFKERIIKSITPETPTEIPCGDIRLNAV

PDE4B = PDE4B (Homo sapiens, UniProt Q07343); conditions: Harvey et al., 2011; cited from earlier work
PDE4B, sequence (Q07343 whole entry, species assumed): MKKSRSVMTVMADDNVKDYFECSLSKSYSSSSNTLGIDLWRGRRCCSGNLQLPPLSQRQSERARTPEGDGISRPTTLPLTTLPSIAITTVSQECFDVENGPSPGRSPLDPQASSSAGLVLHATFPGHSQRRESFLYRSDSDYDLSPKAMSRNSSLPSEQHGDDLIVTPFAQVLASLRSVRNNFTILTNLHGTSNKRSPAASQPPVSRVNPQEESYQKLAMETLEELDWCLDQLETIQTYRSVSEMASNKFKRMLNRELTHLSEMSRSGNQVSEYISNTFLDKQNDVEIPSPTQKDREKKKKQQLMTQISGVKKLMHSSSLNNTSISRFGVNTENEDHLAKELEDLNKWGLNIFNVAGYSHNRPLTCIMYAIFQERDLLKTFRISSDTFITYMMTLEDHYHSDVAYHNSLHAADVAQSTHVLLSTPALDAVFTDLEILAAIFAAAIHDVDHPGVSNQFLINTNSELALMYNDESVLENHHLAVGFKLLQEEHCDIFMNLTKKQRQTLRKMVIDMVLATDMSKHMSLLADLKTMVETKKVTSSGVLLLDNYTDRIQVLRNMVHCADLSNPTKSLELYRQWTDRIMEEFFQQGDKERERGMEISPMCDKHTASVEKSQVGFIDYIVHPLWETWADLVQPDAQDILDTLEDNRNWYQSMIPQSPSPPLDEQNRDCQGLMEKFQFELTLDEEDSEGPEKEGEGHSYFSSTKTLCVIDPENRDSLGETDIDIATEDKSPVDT

[8] = Ambient light, temperature and humidity, 1 week
[9] = Target pH 1.2 (chloride buffer)
[10] = Target pH 1.2, ca. 20 mg in 0.1 mL buffer
[11] = Target pH 4.5, ca. 20 mg in 0.1 mL buffer
[12] = Target pH 6.8 (phosphate buffer)
[13] = Target pH 6.8, ca. 20 mg in 0.1 mL buffer
[14] = 200 mg/mL, water activity aw 0.2 (methanol/water 99:1)
[15] = 400 mg/mL, water activity aw 0.5 (methanol/water 75:25)
[16] = 1000 mg/mL, water activity aw 0.2 (methanol/water 99:1)
[17] = 1000 mg/mL, water activity aw 0.5 (methanol/water 75:25)
[18] = 1000 mg/mL, water activity aw 0.8 (methanol/water 33:67)
[19] = 200 mg/mL, water activity aw 0.8 (methanol/water 33:67)

Row | Compound | HPLC (1-week stability study; 40° C./75% RH (open), 1 week) [% area] | XRPD (pattern number) (1-week stability study; 40° C./75% RH (open), 1 week) | Observation (1-week stability study; 40° C./75% RH (open), 1 week) | HPLC (1-week stability study; 80° C. (closed), 1 week) [% area] | XRPD (pattern number) (1-week stability study; 80° C. (closed), 1 week) | Observation (1-week stability study; 80° C. (closed), 1 week) | HPLC (1-week stability study; [8]) [% area] | XRPD (pattern number) (1-week stability study; [8]) | Observation (1-week stability study; [8]) | HPLC (1-week stability study; Input) [% area] | XRPD (pattern number) (1-week stability study; Input) | Observation (1-week stability study; Input) | DVS water uptake ([1]; 80% RH, 25° C.) [wt %] | hygroscopicity ([1]; 25° C.) | HPLC Conc. [3, 9] [mg/mL] | Observation [3, 10] | HPLC Conc. ([3]; Target pH 4.5 (acetate buffer)) [mg/mL] | Observation [3, 11] | HPLC Conc. [3, 12] [mg/mL] | Observation [3, 13] | other results
1 | COc1ccc(C23CCC(=O)CC2N(C)CC3)cc1OC.O=S(=O)(O)c1ccccc1 (stereo not drawn) [Besylate Pattern 1, mesembrine besylate] | 98.0 | 1, | Light brown solids (BR8) | 96.7 | 1, | Faint beige solids (BE10) | 98.1 | 1, | Faint beige solids (BE10) | 98.1 | 1, | Faint beige solids (BE10) | 2.3 | hygroscopic | >172 | Clear solution | >140 | Clear solution | >97 | Clear solution | DVS water uptake ([1]; 90% RH): 13 wt %; solution degradation (Comments) [2]: degradation; HPLC Purity ([3]; Target pH 1.2, 24 h): 98.01 % area; HPLC Purity ([3]; Target pH 4.5, 24 h): 98.02 % area; HPLC Purity ([3]; Target pH 6.8, 24 h): 97.62 % area; Observation [4, 14]: Clear solution; Observation [4, 15]: Clear solution; Observation ([4]; 400 mg/mL, water activity aw 0.8 (methanol/water 33:67)): Clear solution; Observation [4, 16]: Clear solution; Observation [4, 17]: Clear solution; Observation [4, 18]: Clear solution; Solubility ([4]; listed as besylate salt): greater than 1000 mg/mL; Solubility ([4]; listed as besylate salt Pattern 1): > 1000 mg/mL; physical stability at 40° C./75% RH (Comments) [5]: physically stable; solid form by VH-XRPD ([6]; after 17 h at 90% RH): persisted
2 | COc1ccc(C23CCC(=O)CC2N(C)CC3)cc1OC.O=C(O)C=CC(=O)O (stereo not drawn) [Fumarate Pattern 1 + 4, mesembrine fumarate] | 95.6 | 1/4, | Faint beige solids (BE10 | 83.4 | 6, | Light brown solids (BR8) | 96.1 | 1/4, | Faint beige solids (BE10 | 96.6 | 1/4, | Faint beige solids (BE10) | 0.7 | slightly hygroscopic | 29.44 | Slurry | >24 | Clear solution | 18.98 | Oil | DVS water uptake ([1]; between 0-20% RH): 2.1 wt %; HPLC Purity ([3]; Target pH 1.2, 24 h): 96.31 % area; HPLC Purity ([3]; Target pH 4.5, 24 h): 96.07 % area; HPLC Purity ([3]; Target pH 6.8, 24 h): 96.78 % area; Observation [4, 19]: Thick slurry; Observation ([4]; 400 mg/mL, water activity aw 0.2 (methanol/water 99:1)): Thick slurry; Observation [4, 15]: Slurry; solid form by VH-XRPD ([6]; at 0% RH): fumarate Pattern 5
3 | COc1ccc(C23CCC(=O)CC2N(C)CC3)cc1OC.Cl (stereo not drawn) [Hydrochloride Pattern 1, reference compound] | 93.4 | 1, | Light brown solids (BR8) | 92.8 | 1, | Light brown solids (BR8) | 91.5 | 1, | Faint beige solids (BE10) | 90.5 | 1, | Faint beige solids (BE10) | 5.4 | hygroscopic | >105 | Clear solution | >146 | Clear solution | >122 | Clear solution | DVS water uptake ([1]; 90% RH): 20.3 wt %; solution degradation (Comments) [2]: degradation; Solubility [7]: poorly soluble at higher concentrations; HPLC Purity ([3]; Target pH 1.2, 24 h): 97.09 % area; HPLC Purity ([3]; Target pH 4.5, 24 h): 93.45 % area; HPLC Purity ([3]; Target pH 6.8, 24 h): 92.87 % area; Observation [4, 14]: Clear solution; Observation ([4]; 200 mg/mL, water activity aw 0.5 (methanol/water 75:25)): Clear solution; Observation [4, 19]: Clear solution; Observation [4, 16]: Clear solution; Observation [4, 17]: Slurry; Observation [4, 18]: Slurry; physical stability at 40° C./75% RH (Comments) [5]: physically stable; solid form by VH-XRPD ([6]; after 12 h at 90% RH): remained consistent with hydrochloride salt Pattern 1
4 | COc1ccc(C23C=CC(O)CC2N(C)CC3)cc1OC (stereo not drawn) [mesembrenol] | – | – | – | – | – | – | – | – | – | – | – | – | – | – | – | – | – | – | – | – | activity in a 5-HT transporter binding assay (5-HT transporter): potently active; activity against PDE4B activity (PDE4B): potently active
